Measured values taken from patent US20040138239A1, “Compositions and methods for targeting cerebral circulation and treatment of headache” (priority 2004, published 2004).

Assays:
[1] = test system: fever; conditions: oral delivery; cited from earlier work
[2] = test system: headache; experiment: Inventors' observation: topical NSAID formulations in treatment of a headache; type: in vivo, human; conditions: applied to tender spot or area superficial to carotid, temporal and/or vertebral artery
Source text: Especially preferred compositions include a xanthine derivative in a concentration of about 4% (wt) to 70% (wt) and ketoprofen in a concentration of about 0.5% (wt) to 50% (wt). With respect to the xanthine derivative, the same considerations as described above apply. Furthermore, such particularly preferred compositions may be formulated in a lecithin-containing formulation or a pluronic-lecithin-organogel formulation (supra). It should be especially recognized, that compositions including a xanthine derivative or an NSAID have generally been described in the art. However, the inventors observed that formulations including an NSAID other than Ketoprofen generally fail to provide relief in treatment of a headache, when topically applied to a person (either to a tender spot, or to an area superficial to a carotid artery, a temporal artery and/or a vertebral artery). It is therefore a surprising result that Ketoprofen is the only NSAID effective in treatment of a headache when used in protocols according to the inventive subject matter (see also examples). While not wishing to be bound by a particular hypothesis or theory, the inventors contemplate that the effect of Ketoprofen may be at least in part mediated by a muscle-relaxant effect rather than via a suppressive effect in inflammation.

CC(=O)Nc1ccc(O)cc1 [Acetaminophen]
time to achieve sufficient plasma concentration to lower the fever [1]: at least 20 minutes

CC(C(=O)O)c1cccc(C(=O)c2ccccc2)c1 (centres unmarked) [Ketoprofen, 2-(meta-benzoylphenyl)pro-pionic acid]
relief in treatment of a headache when topically applied [2]: effective
